The supplement of paper PMC10307832

Legend:
Test in all cases: relative viability (nuclei count vs DMSO), 5 days (fraction); higher = more cells survive
BAM7 + Linsitinib = compound: CCOC1=CC=CC=C1N=NC2=C(NN(C2=O)C3=NC(=CS3)C4=CC=CC=C4)C [BAM7] + C[C@]1(O)C[C@@H](c2nc(-c3ccc4ccc(-c5ccccc5)nc4c3)c3c(N)nccn32)C1 [Linsitinib] (partner 1 µM)
Outline: (§1)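 Values are medians from duplicate plates. Each reflects relative viability, defined as the nuclei count of treated wells over that of vehicle wells. Lung cancer cell lines in 1536-well plates were pin-tool dosed one day after seeding with one drug alone or with a fixed anchor-drug dose plus five library-drug doses (not always all listed) in √10 steps, then fixed, stained and imaged at 4× after 5 days.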

[1] = compound: CCn1c(-c2nonc2N)nc2c(C#CC(C)(C)O)ncc(OC[C@H]3CCCNC3)c21 + C[C@@H](Oc1cc(-c2cnn(C3CCNCC3)c2)cnc1N)c1c(Cl)ccc(F)c1Cl [Crizotinib] (partner 1 µM)
Outline: as §1

[2] = compound: CCn1c(-c2nonc2N)nc2c(C#CC(C)(C)O)ncc(OC[C@H]3CCCNC3)c21 + O=C(c1cc(Cc2n[nH]c(=O)c3ccccc23)ccc1F)N1CCN(C(=O)C2CC2)CC1 [Olaparib] (partner 8 µM)
Outline: as §1

[3] = compound: CCn1c(-c2nonc2N)nc2c(C#CC(C)(C)O)ncc(OC[C@H]3CCCNC3)c21 + Nc1nc2[nH]cc(CCc3ccc(C(=O)N[C@@H](CCC(=O)O)C(=O)O)cc3)c2c(=O)[nH]1 [Pemetrexed] (partner 0.2 µM)
Outline: as §1

Cell Line | relative viability (BAM7 + Linsitinib; first compound 0.5 µM) | relative viability (BAM7 + Linsitinib; first compound 5 µM) | relative viability (BAM7 + Linsitinib; first compound 50 µM) | relative viability ([1]; first compound 0.01 µM) | relative viability ([1]; first compound 0.03162 µM) | relative viability ([1]; first compound 0.1 µM) | relative viability ([1]; first compound 0.3162 µM) | relative viability ([1]; first compound 1 µM) | relative viability ([2]; first compound 0.01 µM) | relative viability ([2]; first compound 0.03162 µM) | relative viability ([2]; first compound 0.1 µM) | relative viability ([2]; first compound 0.3162 µM) | relative viability ([2]; first compound 1 µM) | relative viability ([3]; first compound 0.01 µM) | relative viability ([3]; first compound 0.03162 µM) | relative viability ([3]; first compound 0.1 µM) | relative viability ([3]; first compound 0.3162 µM) | relative viability ([3]; first compound 1 µM) | relative viability (BAM7 + Linsitinib; first compound 15.81 µM)
NCI-H1975 | 0.847 | 0.981 | 0.898 | 0.945 | 1.08 | 0.893 | 1.03 | 0.98 | 0.745 | 0.809 | 0.837 | 0.784 | 0.757 | 0.278 | 0.323 | 0.29 | 0.279 | 0.295 | 
CAL-12T | 0.929 | 0.743 | 0.852 | 0.8 | 0.653 | 0.546 | 0.738 | 0.84 | 0.599 | 0.708 | 0.72 | 0.699 | 0.729 | 1.12 | 1.2 | 1.13 | 0.994 | 1.2 | 0.75
HCC-44 | 0.717 | 0.67 | 0.689 | 0.778 | 0.803 | 0.773 | 0.786 | 0.758 | 0.995 | 1.02 | 0.977 | 0.955 | 0.994 | 0.633 | 0.649 | 0.661 | 0.577 | 0.636 | 0.62
EKVX | 1.05 | 1.04 | 0.831 | 0.845 | 0.929 | 1.03 | 0.667 | 0.795 | 0.89 | 0.986 | 0.926 | 0.768 | 0.757 | 0.424 | 0.388 | 0.409 | 0.393 | 0.355 | 0.729
NCI-H1651 | 1.05 | 1.09 | 1.02 | 0.857 | 0.829 | 0.877 | 0.853 | 0.893 | 0.194 | 0.189 | 0.197 | 0.185 | 0.215 | 0.653 | 0.605 | 0.597 | 0.574 | 0.572 | 1.01
NCI-H1944 | 1.3 | 1.36 | 1.07 | 1.07 | 1.07 | 1.02 | 1.07 | 1.09 | 0.393 | 0.418 | 0.4 | 0.41 | 0.407 | 0.618 | 0.622 | 0.657 | 0.565 | 0.631 | 1.13
NCI-H1703 | 0.791 | 0.856 | 0.791 | 0.465 | 0.656 | 0.59 | 0.482 | 0.376 | 0.406 | 0.506 | 0.468 | 0.587 | 0.31 |  |  |  |  |  | 0.75
Calu-6 | 1.1 | 1.11 | 1.02 | 0.758 | 0.814 | 0.868 | 0.756 | 0.786 | 0.546 | 0.589 | 0.605 | 0.558 | 0.644 |  |  |  |  |  | 0.913
EBC-1 | 0.856 | 1.07 | 0.85 | 0.161 | 0.194 | 0.223 | 0.159 | 0.197 | 0.652 | 0.706 | 0.676 | 0.516 | 0.557 |  |  |  |  |  | 0.876
SW 1573 | 0.838 | 0.742 | 0.896 | 0.699 | 0.767 | 0.734 | 0.762 | 0.704 | 0.553 | 0.39 | 0.477 | 0.399 | 0.364 | 0.772 | 0.773 | 0.765 | 0.646 | 0.736 | 0.819
A-427 | 1.14 | 1.1 | 1.14 | 0.925 | 0.966 | 0.978 | 0.828 | 0.846 | 0.737 | 0.203 | 0.75 | 0.683 | 0.709 | 0.925 | 0.999 | 0.876 | 0.91 | 1.08 | 1.05
NCI-H2347 | 0.983 | 1.18 | 0.982 | 0.7 | 0.815 | 0.723 | 0.708 | 0.813 | 0.567 | 0.512 | 0.6 | 0.608 | 0.549 | 0.46 | 0.399 | 0.385 | 0.432 | 0.39 | 0.971
NCI-H1355 | 0.89 | 0.823 | 0.792 | 1.09 | 0.943 | 1.03 | 1.02 | 0.799 | 0.689 | 0.774 | 0.734 | 0.709 | 0.735 | 0.959 | 0.981 | 1.02 | 1.02 | 1.06 | 0.729
NCI-H358 | 0.782 | 0.878 | 0.787 | 0.485 | 0.604 | 0.51 | 0.669 | 0.611 | 0.556 | 0.601 | 0.569 | 0.525 | 0.518 | 0.231 | 0.192 | 0.176 | 0.182 | 0.166 | 0.704
PC-3 [JPC-3] | 0.905 | 0.966 | 0.835 | 0.944 | 0.988 | 1.04 | 0.909 | 0.993 | 1.07 |  | 1.15 | 1.03 | 1.09 | 1.01 |  | 1.03 | 0.946 | 1.17 | 0.868
